Structures are written as SMILES. Active and inactive are the calls of the source. The rule behind the calls is not given here.

The results in this text go back to ChEMBL document CHEMBL2010773, “Design and synthesis of a vialinin A analog with a potent inhibitory activity of TNF-α production and its transformation into a couple of bioprobes” (Bioorg Med Chem Lett, 2012).

Assay [1] has as its system RBL-2H3. The experiment in a line: Antiinflammatory activity in rat RBL2H3 cells assessed as inhibition of DNP-BSA-induced TNF-alpha production preincubated for 15 mins prior DNP-BSA challenge measured after 30 mins by ELISA. In kind it is functional, cell-based.
Assay [2] has as its system Radical scavenging activity. Nature of the assay: Antioxidant activity assessed as DPPH radical scavenging activity after 30 mins by spectrophotometry. In kind it is functional.
Assay [3] relates to RBL-2H3. Nature of the assay: Antiinflammatory activity in rat RBL2H3 cells assessed as inhibition of DNP-BSA-induced TNF-alpha production at 1 nM preincubated for 15 mins prior DNP-BSA challenge measured after 30 mins by ELISA. In kind it is functional, cell-based.

Regarding `Cc1c(C)c(-c2ccc(O)cc2)c(O)c(O)c1-c1ccc(O)cc1`, in assay [1], the concentration for half-maximal inhibition (IC50) was determined as 0.02 nM.

For `COc1ccc2c(COC(=O)CCCCCn3cc(COc4ccc(-c5c(C)c(C)c(-c6ccc(O)cc6)c(O)c5O)cc4)nn3)cc(=O)oc2c1`, the IC50 in assay [1] came to 0.55 nM.

`O=C(Cc1ccccc1)Oc1c(OC(=O)Cc2ccccc2)c(-c2ccc(O)cc2)c(O)c(O)c1-c1ccc(O)cc1` [VIALININ A]: the IC50 in assay [1] worked out at 0.09 nM. Besides, the EC50 in assay [2] stood at 14000 nM.

On to `Cc1c(C)c(-c2ccc(OCc3cn(CCCCCCNC(=O)CCCC[C@@H]4SC[C@@H]5NC(=O)N[C@@H]54)nn3)cc2)c(O)c(O)c1-c1ccc(O)cc1`, for which, in assay [1], the IC50 came out at 8.15 nM.

On to `COCOc1c(OCOC)c(-c2ccc(O)cc2)c(C)c(C)c1-c1ccc(O)cc1`, for which the IC50 in assay [1] was 0.32 nM. Also, the inhibition entry in assay [3] was “Active”.
